Data from ChEMBL document CHEMBL5036340 (Eur J Med Chem, 2021).
Calls of active or inactive are those of the source. The rule behind the calls is not given here.

How the values were obtained:
Acetylcholinesterase = target: T1, Acetylcholinesterase (Rattus norvegicus, UniProt P37136); assay: Inhibition of rat cortex AChE using acetylthiocholine iodide as substrate by Ellman's method
T1 sequence (P37136 whole entry): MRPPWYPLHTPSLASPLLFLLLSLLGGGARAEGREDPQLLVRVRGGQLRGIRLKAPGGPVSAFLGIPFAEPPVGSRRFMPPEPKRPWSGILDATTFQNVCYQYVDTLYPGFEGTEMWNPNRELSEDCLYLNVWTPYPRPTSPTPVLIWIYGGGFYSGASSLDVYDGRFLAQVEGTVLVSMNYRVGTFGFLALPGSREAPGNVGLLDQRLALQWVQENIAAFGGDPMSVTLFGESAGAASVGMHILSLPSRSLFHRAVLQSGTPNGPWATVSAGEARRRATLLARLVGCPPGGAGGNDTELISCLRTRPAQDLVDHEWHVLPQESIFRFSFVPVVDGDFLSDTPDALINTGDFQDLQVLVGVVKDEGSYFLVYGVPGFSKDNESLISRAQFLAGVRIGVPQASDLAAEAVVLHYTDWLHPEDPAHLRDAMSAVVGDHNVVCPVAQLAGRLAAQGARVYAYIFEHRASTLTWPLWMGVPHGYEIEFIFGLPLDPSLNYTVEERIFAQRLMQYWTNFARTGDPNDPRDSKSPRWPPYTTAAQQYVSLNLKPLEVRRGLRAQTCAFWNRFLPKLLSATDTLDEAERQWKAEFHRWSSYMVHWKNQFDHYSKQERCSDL

[1] = target: T2, Acetylcholinesterase (Rattus norvegicus) (UniProt P37136); assay: Mixed-type inhibition of rat cortex AChE at 0.5 to 1.5 nM using varying levels of acetylthiocholine iodide as substrate measured at 5 minutes by Ellman's method based Lineweaver-Burk plot analysis; conditions: dose 0.5-1.5 nM
T2 sequence (whole entry): T1 sequence (P37136 whole entry)

HepG2 = assay: cells; format: functional, cell-based; conditions: Homo sapiens, HepG2, 24 h
Description: Cytotoxicity against human HepG2 cells assessed as reduction in cell viability incubated for 24 hrs by MTT assay

[2] = Terminal half life in C57BL/6 mouse plasma at 10 mg/kg, po administered as single dose measured upto 24 hrs by UPLC analysis; format: ADME, organism-based; conditions: read-out: beta t1/2 (converted)
[3] = Terminal half life in C57BL/6 mouse brain at 10 mg/kg, po administered as single dose measured upto 24 hrs by UPLC analysis; format: ADME, organism-based; conditions: read-out: beta t1/2 (converted)
[4] = Terminal half life in C57BL/6 mouse liver at 10 mg/kg, po administered as single dose by UPLC analysis; format: ADME, organism-based; conditions: read-out: beta t1/2 (converted)
[5] = Terminal half life in C57BL/6 mouse kidney at 10 mg/kg, po administered as single dose by UPLC analysis; format: ADME, organism-based; conditions: read-out: beta t1/2 (converted)
[6] = Tmax in C57BL/6 mouse plasma at 10 mg/kg, po administered as single dose measured upto 24 hrs by UPLC analysis; format: ADME, organism-based
[7] = Tmax in C57BL/6 mouse brain at 10 mg/kg, po administered as single dose measured upto 24 hrs by UPLC analysis; format: ADME, organism-based
[8] = Tmax in C57BL/6 mouse liver at 10 mg/kg, po administered as single dose by UPLC analysis; format: ADME, organism-based
[9] = Tmax in C57BL/6 mouse kidney at 10 mg/kg, po administered as single dose by UPLC analysis; format: ADME, organism-based
[10] = Cmax in C57BL/6 mouse plasma at 10 mg/kg, po administered as single dose measured at 2.25 hrs by UPLC analysis; format: ADME, organism-based; set-up: route oral, dose 10 mg/kg, time 2.25 hrs
[11] = Cmax in C57BL/6 mouse brain at 10 mg/kg, po administered as single dose measured at […] by UPLC analysis; format: ADME, organism-based
[12] = Cmax in C57BL/6 mouse liver at 10 mg/kg, po administered as single dose measured at 1.75 hrs by UPLC analysis; format: ADME, organism-based; set-up: route oral, time 1.75 hrs, dose 10 mg/kg
[13] = Cmax in C57BL/6 mouse kidney at 10 mg/kg, po administered as single dose measured at 2.50 hrs by UPLC analysis; format: ADME, organism-based; set-up: route oral, time 2.5 hrs, dose 10 mg/kg
[14] = AUC (0 to t) in C57BL/6 mouse plasma at 10 mg/kg, po administered as single dose measured upto 24 hrs by UPLC analysis; format: ADME, organism-based; set-up: route oral, dose 10 mg/kg, time <=24; conditions: in vivo
[15] = AUC (0 to infinity) in C57BL/6 mouse plasma at 10 mg/kg, po administered as single dose measured upto 24 hrs by UPLC analysis; format: ADME, organism-based; set-up: route oral, dose 10 mg/kg, time <=24; conditions: in vivo
[16] = AUC (0 to infinity) in C57BL/6 mouse brain at 10 mg/kg, po administered as single dose measured upto 24 hrs by UPLC analysis; format: ADME, organism-based; set-up: route oral, dose 10 mg/kg, time <=24; conditions: in vivo
[17] = AUC (0 to infinity) in C57BL/6 mouse liver at 10 mg/kg, po administered as single dose by UPLC analysis; format: ADME, organism-based; set-up: time infinity, route oral, dose 10 mg/kg; conditions: in vivo
[18] = AUC (0 to infinity) in C57BL/6 mouse kidney at 10 mg/kg, po administered as single dose by UPLC analysis; format: ADME, organism-based; set-up: route oral, time infinity, dose 10 mg/kg; conditions: in vivo
[19] = MRT (0 to infinity) in C57BL/6 mouse plasma at 10 mg/kg, po administered as single dose measured upto 24 hrs by UPLC analysis; format: ADME, organism-based
[20] = MRT (0 to infinity) in C57BL/6 mouse brain at 10 mg/kg, po administered as single dose measured upto 24 hrs by UPLC analysis; format: ADME, organism-based
[21] = MRT (0 to infinity) in C57BL/6 mouse liver at 10 mg/kg, po administered as single dose by UPLC analysis; format: ADME, organism-based
[22] = MRT (0 to infinity) in C57BL/6 mouse kidney at 10 mg/kg, po administered as single dose by UPLC analysis; format: ADME, organism-based
Hippocampus = assay: Anti-alzheimer activity in theta-burst stimulated C57BL/6 mouse hippocampus CA3 region assessed as enhancement of synaptic strength by measuring long term potentiation in brain slice at 3 mg/kg, po for 4 days by electrophysiological recording relative to control; format: functional, organism-based; conditions: time 4.0 day
Mus musculus = organism: Mus musculus; assay: Anti-alzheimer activity in C57BL/6 mouse assessed as decrease in pirenzepine induced LTP at 1 microM pretreated for 90 mins and further incubated with pirenzepine for 30 mins followed by high frequency stimulation by electrophysiological recording; format: functional, organism-based; conditions: time 120.0 min
[23] = Drug concentration in C57BL/6 mouse muscle at 10 mg/kg, po administered as single dose by UPLC analysis; format: ADME, organism-based, Muscle tissue; conditions: in vivo
Butyrylcholinesterase = Butyrylcholinesterase (Rattus norvegicus, UniProt Q9JKC1)
Description: Inhibition of rat serum BChE using butyrylthiocholine iodide as substrate by Ellman's method

[24] = target: Voltage-gated inwardly rectifying potassium channel KCNH2 (Homo sapiens, UniProt Q12809)
Description: Inhibition of hERG expressed in CHO-K1 cells assessed as reduction in thallium influx incubated for 30 minutes by FLIPR

in vitro = conditions: rat, HepG2 cells
Description: Ratio of IC50 for cytotoxicity against human HepG2 cells to ratio of IC50 for inhibition of rat cortex AChE

Sequence of Voltage-gated inwardly rectifying potassium channel KCNH2 (Q12809 whole entry): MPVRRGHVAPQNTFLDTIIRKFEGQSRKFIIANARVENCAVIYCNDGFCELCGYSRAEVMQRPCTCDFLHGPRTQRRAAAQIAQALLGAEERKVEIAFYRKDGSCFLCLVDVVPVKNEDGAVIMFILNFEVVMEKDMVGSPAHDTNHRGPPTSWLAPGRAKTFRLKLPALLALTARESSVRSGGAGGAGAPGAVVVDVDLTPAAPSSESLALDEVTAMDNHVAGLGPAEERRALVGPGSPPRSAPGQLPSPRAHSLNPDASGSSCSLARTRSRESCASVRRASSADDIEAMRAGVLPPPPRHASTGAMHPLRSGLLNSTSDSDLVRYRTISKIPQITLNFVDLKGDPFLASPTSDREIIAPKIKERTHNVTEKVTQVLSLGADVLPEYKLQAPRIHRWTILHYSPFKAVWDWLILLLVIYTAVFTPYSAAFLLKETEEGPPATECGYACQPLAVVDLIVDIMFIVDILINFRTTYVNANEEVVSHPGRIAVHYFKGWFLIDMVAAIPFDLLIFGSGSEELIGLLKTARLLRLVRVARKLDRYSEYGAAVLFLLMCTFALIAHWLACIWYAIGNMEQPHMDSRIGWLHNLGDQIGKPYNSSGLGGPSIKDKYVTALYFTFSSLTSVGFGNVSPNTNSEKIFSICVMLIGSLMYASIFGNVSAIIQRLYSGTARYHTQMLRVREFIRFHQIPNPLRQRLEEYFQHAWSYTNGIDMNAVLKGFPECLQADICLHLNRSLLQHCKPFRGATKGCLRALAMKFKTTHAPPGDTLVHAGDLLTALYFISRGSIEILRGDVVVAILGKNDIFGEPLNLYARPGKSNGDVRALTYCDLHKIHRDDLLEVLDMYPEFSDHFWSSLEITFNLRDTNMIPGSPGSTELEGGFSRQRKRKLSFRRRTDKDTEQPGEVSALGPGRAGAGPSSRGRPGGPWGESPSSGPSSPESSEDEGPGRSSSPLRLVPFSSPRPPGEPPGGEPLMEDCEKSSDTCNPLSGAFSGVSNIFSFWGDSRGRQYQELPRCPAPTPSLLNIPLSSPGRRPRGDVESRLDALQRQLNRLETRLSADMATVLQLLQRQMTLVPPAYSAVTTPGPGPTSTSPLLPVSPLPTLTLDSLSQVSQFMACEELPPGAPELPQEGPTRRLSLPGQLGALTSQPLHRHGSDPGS
Sequence of Butyrylcholinesterase (Q9JKC1 whole entry): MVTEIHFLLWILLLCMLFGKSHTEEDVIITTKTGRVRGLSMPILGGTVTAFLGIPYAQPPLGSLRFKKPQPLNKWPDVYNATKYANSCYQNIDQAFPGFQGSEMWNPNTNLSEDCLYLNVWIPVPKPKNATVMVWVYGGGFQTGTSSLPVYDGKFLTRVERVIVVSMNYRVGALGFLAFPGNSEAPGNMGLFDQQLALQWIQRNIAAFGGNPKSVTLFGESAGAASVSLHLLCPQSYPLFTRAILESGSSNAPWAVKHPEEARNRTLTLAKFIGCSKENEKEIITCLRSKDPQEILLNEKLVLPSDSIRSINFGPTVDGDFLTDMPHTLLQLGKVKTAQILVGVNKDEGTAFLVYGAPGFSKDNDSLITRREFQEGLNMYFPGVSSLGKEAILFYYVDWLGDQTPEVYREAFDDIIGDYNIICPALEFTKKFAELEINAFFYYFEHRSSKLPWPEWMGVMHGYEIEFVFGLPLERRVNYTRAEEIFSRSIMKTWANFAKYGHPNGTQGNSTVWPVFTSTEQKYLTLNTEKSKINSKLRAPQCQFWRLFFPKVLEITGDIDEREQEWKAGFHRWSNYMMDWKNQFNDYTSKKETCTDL

**Q.** Which results are given for `O=c1ccc2c([nH]1)CCC(NCCCNc1c3c(nc4cc(Cl)ccc14)CCCC3)C2` (configuration not stated)?
**A.** IC50 (Acetylcholinesterase): 0.9 nM; inhibition [1]: Active; IC50 (HepG2): 107000 nM; half-life [2]: 7.89 h; half-life [3]: 7.8 h; half-life [4]: 7.16 h; half-life [5]: 7.49 h; Tmax [6]: 2.25 h; Tmax [7]: 2.75 h; Tmax [8]: 1.75 h; Tmax [9]: 2.5 h; Cmax [10]: 68.3 ng/mL; Cmax at […] [11]: 4.02 ng/mL; Cmax [12]: 148 ng/mL; Cmax [13]: 165 ng/mL; AUCt [14]: 246 ng·h/mL; AUC [15]: 279 ng·h/mL; AUC [16]: 21.86 g/h; AUC [17]: 534.14 g/h; AUC [18]: 1124.93 g/h; MRT inf [19]: 10.8 h; MRT inf [20]: 11.1 h; MRT inf [21]: 8.39 h; MRT inf [22]: 11.1 h; Activity (Hippocampus): Active; Activity (Mus musculus): Active; Drug uptake [23]: Not Active; IC50 (Butyrylcholinesterase): 200 nM; IC50 [24]: 8980 nM; selectivity ratio (in vitro): 119000

**Q.** For `COc1cc2c(cc1OC)C(=O)C(CC1CCN(Cc3ccccc3)CC1)C2` (configuration not stated) [DONEPEZIL], which IC50 (HepG2) is on record?
**A.** The IC50 was 263000 nM.

**Q.** Which results are given for `O=c1ccc2c([nH]1)CCC(NCCCCCCNc1c3c(nc4cc(Cl)ccc14)CCCC3)C2` (configuration not stated)?
**A.** IC50 (Acetylcholinesterase): 6.02 nM; IC50 (HepG2): 51300 nM; IC50 (Butyrylcholinesterase): 574 nM; IC50 [24]: 11600 nM; selectivity ratio (in vitro): 8520

**Q.** With `O=c1ccc2c([nH]1)CCC(NCCCCCCCNc1c3c(nc4cc(Cl)ccc14)CCCC3)C2` (configuration not stated) as the compound, how does the IC50 (Acetylcholinesterase) read?
**A.** The IC50 was 14.8 nM.

**Q.** What about the IC50 (HepG2) of the same compound?
**A.** The IC50 was 39200 nM.

**Q.** And the IC50 (Butyrylcholinesterase)?
**A.** Its IC50 is 893 nM.

**Q.** What about the IC50 [24] of the same compound?
**A.** The IC50 was 6360 nM.

**Q.** And the selectivity ratio (in vitro)?
**A.** Its selectivity ratio is 2660.

**Q.** Which IC50 (Acetylcholinesterase) does the source give for `O=c1ccc2c([nH]1)CCC(NCCCCCCCCNc1c3c(nc4cc(Cl)ccc14)CCCC3)C2` (configuration not stated) here?
**A.** Its IC50 is 12.7 nM.

**Q.** What about the IC50 (HepG2) of the same compound?
**A.** Its IC50 is 42600 nM.

**Q.** And the IC50 (Butyrylcholinesterase)?
**A.** Its IC50 is 1360 nM.

**Q.** What about the IC50 [24] of the same compound?
**A.** Its IC50 is 2190 nM.

**Q.** And the selectivity ratio (in vitro)?
**A.** Its selectivity ratio is 3340.

**Q.** Which results are given for `O=c1ccc2c([nH]1)CCC(NCCNc1c3c(nc4cc(Cl)ccc14)CCCC3)C2` (configuration not stated)?
**A.** IC50 (Acetylcholinesterase): 17.7 nM; IC50 (HepG2): 214000 nM; IC50 (Butyrylcholinesterase): 401 nM; IC50 [24]: 2410 nM; selectivity ratio (in vitro): 12100

**Q.** With `O=c1ccc2c([nH]1)CCC(NCCCCCCCCCCNc1c3c(nc4cc(Cl)ccc14)CCCC3)C2` (configuration not stated) as the compound, how does the IC50 (Acetylcholinesterase) read?
**A.** Its IC50 is 66 nM.

**Q.** And the IC50 (HepG2)?
**A.** The IC50 was 17200 nM.

**Q.** And the IC50 (Butyrylcholinesterase)?
**A.** Its IC50 is 3780 nM.

**Q.** What about the IC50 [24] of the same compound?
**A.** The IC50 was 2770 nM.

**Q.** What about the selectivity ratio (in vitro) of the same compound?
**A.** Its selectivity ratio is 260.

**Q.** What does the source list for `O=c1ccc2c([nH]1)CCC(NCCCCCCCCCNc1c3c(nc4cc(Cl)ccc14)CCCC3)C2` (configuration not stated)?
**A.** IC50 (Acetylcholinesterase): 29.1 nM; IC50 (HepG2): 35500 nM; IC50 (Butyrylcholinesterase): 1080 nM

**Q.** Which IC50 (Acetylcholinesterase) does the source give for `O=c1ccc2c([nH]1)CCC(NCCCCCNc1c3c(nc4cc(Cl)ccc14)CCCC3)C2` (configuration not stated) here?
**A.** Its IC50 is 5.66 nM.

**Q.** And the IC50 (HepG2)?
**A.** Its IC50 is 47200 nM.

**Q.** And the IC50 (Butyrylcholinesterase)?
**A.** Its IC50 is 503 nM.

**Q.** And the IC50 [24]?
**A.** The IC50 was 7660 nM.

**Q.** And the selectivity ratio (in vitro)?
**A.** The selectivity ratio was 8340.

**Q.** What does the source list for `O=c1ccc2c([nH]1)CCC(NCCCCNc1c3c(nc4cc(Cl)ccc14)CCCC3)C2` (configuration not stated)?
**A.** IC50 (Acetylcholinesterase): 2.94 nM; IC50 (HepG2): 110000 nM; IC50 (Butyrylcholinesterase): 347 nM
